Assay results taken from ChEMBL document CHEMBL5126592, “Design, synthesis and activity against drug-resistant bacteria evaluation of C-20, C-23 modified 5-O-mycaminosyltylonolide derivatives” (Eur J Med Chem, 2022).
Converted amounts (≈) assume the structure as drawn.

How the values were obtained:
Assay type in all cases: functional
Details in all cases: time 16-20 hrs
[1] = test system: Staphylococcus aureus; experiment: Antibacterial activity against Staphylococcus aureus ATCC 25923 incubated for 16 to 20 hrs by broth microdilution method
[2] = test system: Escherichia coli; experiment: Antibacterial activity against Escherichia coli ATCC 25922 incubated for 16 to 20 hrs by broth microdilution method
[3] = test system: Cronobacter sakazakii; experiment: Antibacterial activity against Cronobacter sakazakii ATCC 29544 incubated for 16 to 20 hrs by broth microdilution method
[4] = test system: Klebsiella pneumoniae; experiment: Antibacterial activity against Klebsiella pneumoniae ATCC 13883 incubated for 16 to 20 hrs by broth microdilution method

| Structure (SMILES) | MIC [1] [mg/L] | MIC [2] [mg/L] | MIC [3] [mg/L] | MIC [4] [mg/L] |
| --- | --- | --- | --- | --- |
| CC[C@H]1OC(=O)C[C@@H](O)[C@H](C)[C@@H](O[C@@H]2O[C@H](C)[C@@H](O)[C@H](N(C)C)[C@H]2O)[C@@H](CCN(Cc2ccccc2)Cc2cn(-c3cnc4ccccc4c3)nn2)C[C@@H](C)C(=O)/C=C/C(C)=C/[C@@H]1CN1CCCCC1 | 1 (≈ 1.04 µM) | 8 (≈ 8.3 µM) | 8 (≈ 8.3 µM) | 8 (≈ 8.3 µM) |
| CC[C@H]1OC(=O)C[C@@H](O)[C@H](C)[C@@H](O[C@@H]2O[C@H](C)[C@@H](O)[C@H](N(C)C)[C@H]2O)[C@@H](CCN(Cc2cn(-c3cnc4ccccc4c3)nn2)Cc2ccco2)C[C@@H](C)C(=O)/C=C/C(C)=C/[C@@H]1CN1CC(C)CC(C)C1 (some centres not stated) | 2 (≈ 2.04 µM) | 16 (≈ 16.3 µM) | 16 (≈ 16.3 µM) | 16 (≈ 16.3 µM) |
| CC[C@H]1OC(=O)C[C@@H](O)[C@H](C)[C@@H](O[C@@H]2O[C@H](C)[C@@H](O)[C@H](N(C)C)[C@H]2O)[C@@H](CCN(Cc2ccc(N(C)C)cc2)Cc2cn(-c3cnc4ccccc4c3)nn2)C[C@@H](C)C(=O)/C=C/C(C)=C/[C@@H]1CN1CCCCC1 | 0.5 (≈ 0.496 µM) | 4 (≈ 3.97 µM) | 8 (≈ 7.94 µM) | 8 (≈ 7.94 µM) |
| CC[C@H]1OC(=O)C[C@@H](O)[C@H](C)[C@@H](O[C@@H]2O[C@H](C)[C@@H](O)[C@H](N(C)C)[C@H]2O)[C@@H](CCN(Cc2ccc(OC)cc2)Cc2cn(-c3cnc4ccccc4c3)nn2)C[C@@H](C)C(=O)/C=C/C(C)=C/[C@@H]1CI | 2 (≈ 1.93 µM) | 16 (≈ 15.4 µM) | 32 (≈ 30.9 µM) | 32 (≈ 30.9 µM) |
| CC[C@H]1OC(=O)C[C@@H](O)[C@H](C)[C@@H](O[C@@H]2O[C@H](C)[C@@H](O)[C@H](N(C)C)[C@H]2O)[C@@H](CCN(Cc2ccc(OC)cc2)Cc2cn(-c3cnc4ccccc4c3)nn2)C[C@@H](C)C(=O)/C=C/C(C)=C/[C@@H]1CN1CCCCCCC1 | 1 (≈ 0.978 µM) | 4 (≈ 3.91 µM) | 16 (≈ 15.7 µM) | 16 (≈ 15.7 µM) |
| CC[C@H]1OC(=O)C[C@@H](O)[C@H](C)[C@@H](O[C@@H]2O[C@H](C)[C@@H](O)[C@H](N(C)C)[C@H]2O)[C@@H](CCN(Cc2ccc(C(C)C)cc2)Cc2cn(-c3cnc4ccccc4c3)nn2)C[C@@H](C)C(=O)/C=C/C(C)=C/[C@@H]1CO | 0.5 (≈ 0.532 µM) | 16 (≈ 17 µM) | 32 (≈ 34.1 µM) | 32 (≈ 34.1 µM) |
| CC[C@H]1OC(=O)C[C@@H](O)[C@H](C)[C@@H](O[C@@H]2O[C@H](C)[C@@H](O)[C@H](N(C)C)[C@H]2O)[C@@H](CCN(Cc2ccc([N+](=O)[O-])cc2)Cc2cn(-c3cnc4ccccc4c3)nn2)C[C@@H](C)C(=O)/C=C/C(C)=C/[C@@H]1CO | 0.25 (≈ 0.265 µM) | 32 (≈ 34 µM) | 32 (≈ 34 µM) | 32 (≈ 34 µM) |
| CC[C@H]1OC(=O)C[C@@H](O)[C@H](C)[C@@H](O[C@@H]2O[C@H](C)[C@@H](O)[C@H](N(C)C)[C@H]2O)[C@@H](CCN(Cc2ccc(C(F)(F)F)cc2)Cc2cn(-c3cnc4ccccc4c3)nn2)C[C@@H](C)C(=O)/C=C/C(C)=C/[C@@H]1CN(CC)CC | 1 (≈ 0.98 µM) | 4 (≈ 3.92 µM) | 16 (≈ 15.7 µM) | 8 (≈ 7.84 µM) |
| CC[C@H]1OC(=O)C[C@@H](O)[C@H](C)[C@@H](O[C@@H]2O[C@H](C)[C@@H](O)[C@H](N(C)C)[C@H]2O)[C@@H](CCN(Cc2cn(-c3cnc4ccccc4c3)nn2)Cc2ccc(CO)o2)C[C@@H](C)C(=O)/C=C/C(C)=C/[C@@H]1CO | 0.5 (≈ 0.545 µM) | 32 (≈ 34.9 µM) | 32 (≈ 34.9 µM) | 32 (≈ 34.9 µM) |
| CC[C@H]1OC(=O)C[C@@H](O)[C@H](C)[C@@H](O[C@@H]2O[C@H](C)[C@@H](O)[C@H](N(C)C)[C@H]2O)[C@@H](CCN(Cc2cn(-c3cnc4ccccc4c3)nn2)Cc2ccco2)C[C@@H](C)C(=O)/C=C/C(C)=C/[C@@H]1CN(CC)CC | 1 (≈ 1.06 µM) | 4 (≈ 4.25 µM) | 8 (≈ 8.49 µM) | 16 (≈ 17 µM) |
| CC[C@H]1OC(=O)C[C@@H](O)[C@H](C)[C@@H](O[C@@H]2O[C@H](C)[C@@H](O)[C@H](N(C)C)[C@H]2O)[C@@H](CCN(Cc2ccc(OC)cc2)Cc2cn(-c3cnc4ccccc4c3)nn2)C[C@@H](C)C(=O)/C=C/C(C)=C/[C@@H]1CO | 0.25 (≈ 0.27 µM) | 8 (≈ 8.63 µM) | 32 (≈ 34.5 µM) | 16 (≈ 17.3 µM) |
| CC[C@H]1OC(=O)C[C@@H](O)[C@H](C)[C@@H](O[C@@H]2O[C@H](C)[C@@H](O)[C@H](N(C)C)[C@H]2O)[C@@H](CCN(Cc2ccccc2)Cc2cn(-c3cnc4ccccc4c3)nn2)C[C@@H](C)C(=O)/C=C/C(C)=C/[C@@H]1CN(C)C | 1 (≈ 1.08 µM) | 8 (≈ 8.66 µM) | 16 (≈ 17.3 µM) | 4 (≈ 4.33 µM) |
| CC[C@H]1OC(=O)C[C@@H](O)[C@H](C)[C@@H](O[C@@H]2O[C@H](C)[C@@H](O)[C@H](N(C)C)[C@H]2O)[C@@H](CCN(Cc2ccc(O)c(OC)c2)Cc2cn(-c3cnc4ccccc4c3)nn2)C[C@@H](C)C(=O)/C=C/C(C)=C/[C@@H]1CO | 0.5 (≈ 0.53 µM) | 16 (≈ 17 µM) | 16 (≈ 17 µM) | 16 (≈ 17 µM) |
| CC[C@H]1OC(=O)C[C@@H](O)[C@H](C)[C@@H](O[C@@H]2O[C@H](C)[C@@H](O)[C@H](N(C)C)[C@H]2O)[C@@H](CCN(C)Cc2cn(-c3cnc4ccccc4c3)nn2)C[C@@H](C)C(=O)/C=C/C(C)=C/[C@@H]1CN1CCC(O)CC1 | 8 (≈ 8.85 µM) | 16 (≈ 17.7 µM) | 32 (≈ 35.4 µM) | 16 (≈ 17.7 µM) |
| CC[C@H]1OC(=O)C[C@@H](O)[C@H](C)[C@@H](O[C@@H]2O[C@H](C)[C@@H](O)[C@H](N(C)C)[C@H]2O)[C@@H](CCN(Cc2ccc(N(C)C)cc2)Cc2cn(-c3cnc4ccccc4c3)nn2)C[C@@H](C)C(=O)/C=C/C(C)=C/[C@@H]1CN1CCCCCC1 | 1 (≈ 0.979 µM) | 4 (≈ 3.92 µM) | 8 (≈ 7.83 µM) | 4 (≈ 3.92 µM) |
| CCCN(CCC)C[C@H]1/C=C(C)/C=C/C(=O)[C@H](C)C[C@H](CCN(C)Cc2cn(-c3cnc4ccccc4c3)nn2)[C@H](O[C@@H]2O[C@H](C)[C@@H](O)[C@H](N(C)C)[C@H]2O)[C@@H](C)[C@H](O)CC(=O)O[C@@H]1CC | 0.25 (≈ 0.276 µM) | 4 (≈ 4.42 µM) | 8 (≈ 8.85 µM) | 4 (≈ 4.42 µM) |
| CC[C@H]1OC(=O)C[C@@H](O)[C@H](C)[C@@H](O[C@@H]2O[C@H](C)[C@@H](O)[C@H](N(C)C)[C@H]2O)[C@@H](CCN(Cc2cn(-c3cnc4ccccc4c3)nn2)Cc2ccco2)C[C@@H](C)C(=O)/C=C/C(C)=C/[C@@H]1CN(C)C | 0.5 (≈ 0.547 µM) | 4 (≈ 4.38 µM) | 16 (≈ 17.5 µM) | 8 (≈ 8.75 µM) |
| CC[C@H]1OC(=O)C[C@@H](O)[C@H](C)[C@@H](O[C@@H]2O[C@H](C)[C@@H](O)[C@H](N(C)C)[C@H]2O)[C@@H](CCN(Cc2ccc(C(F)(F)F)cc2)Cc2cn(-c3cnc4ccccc4c3)nn2)C[C@@H](C)C(=O)/C=C/C(C)=C/[C@@H]1CN1CC(C)CC(C)C1 (some centres not stated) | 4 (≈ 3.77 µM) | 32 (≈ 30.2 µM) | 16 (≈ 15.1 µM) | 16 (≈ 15.1 µM) |
| CC[C@H]1OC(=O)C[C@@H](O)[C@H](C)[C@@H](O[C@@H]2O[C@H](C)[C@@H](O)[C@H](N(C)C)[C@H]2O)[C@@H](CCN(Cc2ccccc2)Cc2cn(-c3cnc4ccccc4c3)nn2)C[C@@H](C)C(=O)/C=C/C(C)=C/[C@@H]1CI | 2 (≈ 1.99 µM) | 32 (≈ 31.8 µM) | 32 (≈ 31.8 µM) | 32 (≈ 31.8 µM) |
| CC[C@H]1OC(=O)C[C@@H](O)[C@H](C)[C@@H](O[C@@H]2O[C@H](C)[C@@H](O)[C@H](N(C)C)[C@H]2O)[C@@H](CCN(Cc2ccsc2)Cc2cn(-c3cnc4ccccc4c3)nn2)C[C@@H](C)C(=O)/C=C/C(C)=C/[C@@H]1CO | 0.25 (≈ 0.277 µM) | 16 (≈ 17.7 µM) | 32 (≈ 35.4 µM) | 16 (≈ 17.7 µM) |
| CC[C@H]1OC(=O)C[C@@H](O)[C@H](C)[C@@H](O[C@@H]2O[C@H](C)[C@@H](O)[C@H](N(C)C)[C@H]2O)[C@@H](CCN(Cc2ccc(N(C)C)cc2)Cc2cn(-c3cnc4ccccc4c3)nn2)C[C@@H](C)C(=O)/C=C/C(C)=C/[C@@H]1CN1CC(C)CC(C)C1 (some centres not stated) | 2 (≈ 1.93 µM) | 8 (≈ 7.73 µM) | 32 (≈ 30.9 µM) | 32 (≈ 30.9 µM) |
| CC[C@H]1OC(=O)C[C@@H](O)[C@H](C)[C@@H](O[C@@H]2O[C@H](C)[C@@H](O)[C@H](N(C)C)[C@H]2O)[C@@H](CCN(Cc2cccnc2)Cc2cn(-c3cnc4ccccc4c3)nn2)C[C@@H](C)C(=O)/C=C/C(C)=C/[C@@H]1CO | 0.5 (≈ 0.557 µM) | 32 (≈ 35.6 µM) | 32 (≈ 35.6 µM) | 32 (≈ 35.6 µM) |
| CC[C@H]1OC(=O)C[C@@H](O)[C@H](C)[C@@H](O[C@@H]2O[C@H](C)[C@@H](O)[C@H](N(C)C)[C@H]2O)[C@@H](CCN(C)Cc2cn(-c3cnc4ccccc4c3)nn2)C[C@@H](C)C(=O)/C=C/C(C)=C/[C@@H]1CN(C)C(C)C | 0.5 (≈ 0.571 µM) | 8 (≈ 9.13 µM) | 16 (≈ 18.3 µM) | 8 (≈ 9.13 µM) |
